Assays:
Type in all cases: cell-based
human TLR7 = target: T1, human TLR7 (Homo sapiens, UniProt Q9NYK1); assay: TLR7 inhibition reporter assay (HEK-Blue cells, SEAP reporter, gardiquimod stimulation); conditions: HEK-Blue cells overexpressing human TLR7, SEAP reporter, gardiquimod 7.5 μM
T1 construct: host or cells: HEK-Blue cells (HEK293-derived reporter line)
T1 sequence (Q9NYK1 27-1049): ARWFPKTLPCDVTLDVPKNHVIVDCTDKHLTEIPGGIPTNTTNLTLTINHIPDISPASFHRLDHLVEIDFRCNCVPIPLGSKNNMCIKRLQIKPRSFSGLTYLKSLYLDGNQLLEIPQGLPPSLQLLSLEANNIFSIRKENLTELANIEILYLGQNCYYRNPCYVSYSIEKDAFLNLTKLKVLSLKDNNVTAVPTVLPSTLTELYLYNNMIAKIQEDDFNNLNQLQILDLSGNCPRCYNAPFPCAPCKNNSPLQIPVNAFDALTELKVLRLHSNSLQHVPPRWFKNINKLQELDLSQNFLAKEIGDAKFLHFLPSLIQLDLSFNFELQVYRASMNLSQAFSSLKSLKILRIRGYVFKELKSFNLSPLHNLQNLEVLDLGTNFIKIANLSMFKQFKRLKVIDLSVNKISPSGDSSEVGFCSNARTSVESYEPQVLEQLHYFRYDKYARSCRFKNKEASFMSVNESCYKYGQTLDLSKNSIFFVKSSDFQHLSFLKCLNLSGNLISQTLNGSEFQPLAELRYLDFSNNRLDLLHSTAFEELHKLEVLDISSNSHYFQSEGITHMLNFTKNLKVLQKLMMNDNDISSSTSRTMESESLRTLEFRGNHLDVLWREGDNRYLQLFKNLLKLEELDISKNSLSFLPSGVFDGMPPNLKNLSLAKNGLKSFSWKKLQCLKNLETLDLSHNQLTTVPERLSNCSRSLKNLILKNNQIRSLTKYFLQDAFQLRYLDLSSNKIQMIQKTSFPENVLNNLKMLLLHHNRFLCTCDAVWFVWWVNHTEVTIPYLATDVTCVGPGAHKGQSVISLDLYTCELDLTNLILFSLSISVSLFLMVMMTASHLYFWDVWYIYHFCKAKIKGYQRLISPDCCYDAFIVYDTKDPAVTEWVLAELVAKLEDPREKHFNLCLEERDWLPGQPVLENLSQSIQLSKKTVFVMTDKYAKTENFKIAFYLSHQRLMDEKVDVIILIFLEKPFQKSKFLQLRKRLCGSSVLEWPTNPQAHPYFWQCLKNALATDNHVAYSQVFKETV
In short: (§1)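 Agonists (final): TLR7 gardiquimod 7.5 μM; TLR8 R848 15.9 μM; TLR9 ODN2006 5 nM. HEK-Blue reporter cells, 30 min RT compound pre-incubation, 0.05 nM–50 μM dose range, 22 h at 37 °C, colorimetric SEAP detection medium. % inhibition relative to agonist+DMSO and known-inhibitor wells.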

human TLR8 = target: T2, human TLR8 (Homo sapiens, UniProt Q9NR97); assay: TLR8 inhibition reporter assay (HEK-Blue cells, SEAP reporter, R848 stimulation); conditions: HEK-Blue cells overexpressing human TLR8, SEAP reporter, R848 15.9 μM
T2 construct: host or cells: HEK-Blue cells (HEK293-derived reporter line)
T2 sequence (Q9NR97 27-1041): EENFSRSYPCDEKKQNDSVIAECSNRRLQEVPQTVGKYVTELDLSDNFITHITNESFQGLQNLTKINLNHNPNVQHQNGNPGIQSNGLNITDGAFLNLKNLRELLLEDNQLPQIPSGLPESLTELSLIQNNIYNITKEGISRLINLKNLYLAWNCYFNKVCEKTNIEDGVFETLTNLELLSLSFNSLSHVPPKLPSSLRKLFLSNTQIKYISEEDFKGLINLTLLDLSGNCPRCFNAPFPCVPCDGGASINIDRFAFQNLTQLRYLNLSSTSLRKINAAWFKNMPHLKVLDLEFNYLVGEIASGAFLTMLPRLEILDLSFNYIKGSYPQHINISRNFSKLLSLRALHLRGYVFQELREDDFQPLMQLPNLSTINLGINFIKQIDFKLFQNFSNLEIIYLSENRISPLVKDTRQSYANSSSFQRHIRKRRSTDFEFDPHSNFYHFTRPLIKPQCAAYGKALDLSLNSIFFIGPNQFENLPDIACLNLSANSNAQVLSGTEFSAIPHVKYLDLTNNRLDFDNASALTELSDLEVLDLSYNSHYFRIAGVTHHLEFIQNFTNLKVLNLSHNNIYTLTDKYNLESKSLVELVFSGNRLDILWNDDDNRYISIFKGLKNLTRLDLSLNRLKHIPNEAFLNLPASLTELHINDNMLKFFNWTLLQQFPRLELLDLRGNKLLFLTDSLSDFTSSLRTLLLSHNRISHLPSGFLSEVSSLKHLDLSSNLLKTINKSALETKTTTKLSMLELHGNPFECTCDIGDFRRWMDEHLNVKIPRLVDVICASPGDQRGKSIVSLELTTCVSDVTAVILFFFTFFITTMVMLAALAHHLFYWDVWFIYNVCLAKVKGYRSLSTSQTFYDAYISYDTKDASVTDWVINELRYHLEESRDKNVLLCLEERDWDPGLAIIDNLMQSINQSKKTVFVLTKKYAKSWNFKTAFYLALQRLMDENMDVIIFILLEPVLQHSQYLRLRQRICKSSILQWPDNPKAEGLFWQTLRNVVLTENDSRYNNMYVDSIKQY
In short: as §1

human TLR9 = target: T3, human TLR9 (Homo sapiens, UniProt Q9NR96); assay: TLR9 inhibition reporter assay (HEK-Blue cells, SEAP reporter, ODN2006 stimulation); conditions: HEK-Blue cells overexpressing human TLR9, SEAP reporter, ODN2006 5 nM
T3 construct: host or cells: HEK-Blue cells (HEK293-derived reporter line)
T3 sequence (Q9NR96 26-1032): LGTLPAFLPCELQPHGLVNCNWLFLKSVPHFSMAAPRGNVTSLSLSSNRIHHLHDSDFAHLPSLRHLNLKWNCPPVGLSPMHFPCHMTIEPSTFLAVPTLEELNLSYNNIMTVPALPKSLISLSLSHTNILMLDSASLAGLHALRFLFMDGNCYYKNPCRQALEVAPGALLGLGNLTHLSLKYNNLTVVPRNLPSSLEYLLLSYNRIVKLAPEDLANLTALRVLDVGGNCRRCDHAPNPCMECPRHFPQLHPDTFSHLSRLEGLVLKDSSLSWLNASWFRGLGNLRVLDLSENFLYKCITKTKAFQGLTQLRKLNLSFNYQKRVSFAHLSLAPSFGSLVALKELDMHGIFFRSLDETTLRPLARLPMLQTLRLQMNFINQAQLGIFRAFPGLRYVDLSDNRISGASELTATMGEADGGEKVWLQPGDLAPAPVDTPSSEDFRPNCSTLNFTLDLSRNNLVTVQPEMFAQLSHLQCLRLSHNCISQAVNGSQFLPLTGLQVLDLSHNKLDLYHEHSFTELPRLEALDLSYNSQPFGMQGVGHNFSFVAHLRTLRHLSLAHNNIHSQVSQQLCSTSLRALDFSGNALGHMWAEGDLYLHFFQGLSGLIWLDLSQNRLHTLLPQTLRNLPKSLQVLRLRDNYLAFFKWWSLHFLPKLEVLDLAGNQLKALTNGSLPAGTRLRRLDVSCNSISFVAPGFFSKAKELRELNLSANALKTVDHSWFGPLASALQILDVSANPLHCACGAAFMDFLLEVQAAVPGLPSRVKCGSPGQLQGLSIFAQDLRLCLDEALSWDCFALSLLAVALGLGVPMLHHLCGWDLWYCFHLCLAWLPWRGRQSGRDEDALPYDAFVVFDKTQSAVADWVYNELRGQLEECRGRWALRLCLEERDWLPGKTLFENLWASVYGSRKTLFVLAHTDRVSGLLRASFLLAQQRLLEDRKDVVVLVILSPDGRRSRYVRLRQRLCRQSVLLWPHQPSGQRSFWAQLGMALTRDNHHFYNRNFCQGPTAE
In short: as §1

Cc1cc(-c2[nH]c3ccc(C4CCNCC4)cc3c2C(C)C)cc2ocnc12 [Example 234, 6-(3-isopropyl-5-(piperidin-4-yl)-1H-indol-2-yl)-4-methylbenzo[d]oxazole]
IC50 (human TLR7): < 100 nM | IC50 (human TLR8): < 100 nM | IC50 (human TLR9): 1000 to 50000 nM

Cc1nn2ccc(-c3[nH]c4ccc(C5CCNCC5)cc4c3C(C)C)nc2c1F [Example 150, 3-fluoro-5-(3-isopropyl-5-(piperidin-4-yl)-1H-indol-2-yl)-2-methylpyrazolo[1,5-a]pyrimidine]
IC50 (human TLR7): 1000 to 50000 nM | IC50 (human TLR8): 1000 to 50000 nM | IC50 (human TLR9): 1000 to 50000 nM

CCc1c(C)c(-c2[nH]c3ccc(C4CCN(CC(=O)NC)CC4)cc3c2C(C)C)cn2ccnc12 [Example 418, 2-(4-(2-(8-ethyl-7-methylimidazo[1,2-a]pyridin-6-yl)-3-isopropyl-1H-indol-5-yl)piperidin-1-yl)-N-methylacetamide]
IC50 (human TLR7): < 100 nM | IC50 (human TLR8): 100 to 1000 nM | IC50 (human TLR9): 1000 to 50000 nM

COc1cc(-c2[nH]c3ccc(C4CCN(C(=O)CN(C)C)CC4)cc3c2C(C)C)cc2nc(C)cn12 [Example 541, 2-(dimethylamino)-1-(4-(3-isopropyl-2-(5-methoxy-2-methylimidazo[1,2-a]pyridin-7-yl)-1H-indol-5-yl)piperidin-1-yl)ethan-1-one]
IC50 (human TLR7): 100 to 1000 nM | IC50 (human TLR8): 100 to 1000 nM | IC50 (human TLR9): 100 to 1000 nM

Cc1nc[nH]c1CN1CCC(c2ccc3[nH]c(-c4ccnc5[nH]nc(C)c45)c(C(C)C)c3c2)CC1 [Example 874, 4-(3-isopropyl-5-(1-((4-methyl-1H-imidazol-5-yl)methyl)piperidin-4-yl)-1H-indol-2-yl)-3-methyl-1H-pyrazolo[3,4-b]pyridine]
IC50 (human TLR7): < 100 nM | IC50 (human TLR8): < 100 nM | IC50 (human TLR9): 100 to 1000 nM

CCc1c(-c2ccnc3[nH]ncc23)[nH]c2ccc(C3CCN(Cc4c[nH]c(-c5ccccc5)n4)CC3)cc12 [Example 908, 4-(3-ethyl-5-(1-((2-phenyl-1H-imidazol-4-yl)methyl)piperidin-4-yl)-1H-indol-2-yl)-1H-pyrazolo[3,4-b]pyridine]
IC50 (human TLR7): 100 to 1000 nM | IC50 (human TLR8): 100 to 1000 nM | IC50 (human TLR9): 1000 to 50000 nM

Cc1c(-c2[nH]c3ccc(C4CCN(CC(=O)N(C)C)CC4)cc3c2C(C)C)cn2nnnc2c1C [Example 309, 2-(4-(2-(7,8-dimethyltetrazolo[1,5-a]pyridin-6-yl)-3-isopropyl-1H-indol-5-yl)piperidin-1-yl)-N,N-dimethylacetamide]
IC50 (human TLR7): < 100 nM | IC50 (human TLR8): < 100 nM | IC50 (human TLR9): 1000 to 50000 nM

CNC(=O)CN1CCC(c2ccc3[nH]c(-c4cc(C)n5cncc5c4)c(C(C)C)c3c2)CC1 [Example 440, 2-(4-(3-isopropyl-2-(5-methylimidazo[1,5-a]pyridin-7-yl)-1H-indol-5-yl)piperidin-1-yl)-N-methylacetamide]
IC50 (human TLR7): < 100 nM | IC50 (human TLR8): < 100 nM | IC50 (human TLR9): 100 to 1000 nM

COc1nc(-c2[nH]c3ccc(C4CCN(CC(=O)N(C)C)CC4)cc3c2C(C)C)cn2ncnc12 [Example 292, 2-(4-(3-isopropyl-2-(8-methoxy-[1,2,4]triazolo[1,5-a]pyrazin-6-yl)-1H-indol-5-yl)piperidin-1-yl)-N,N-dimethylacetamide]
IC50 (human TLR7): < 100 nM | IC50 (human TLR8): < 100 nM | IC50 (human TLR9): 1000 to 50000 nM

CC(C)c1c(-c2ccnc3cnn(C)c23)[nH]c2ccc(C3CCNCC3)cc12 [Example 43, 7-(3-isopropyl-5-(piperidin-4-yl)-1H-indol-2-yl)-1-methyl-1H-pyrazolo[4,3-b]pyridine]
IC50 (human TLR7): 100 to 1000 nM | IC50 (human TLR8): < 100 nM | IC50 (human TLR9): 1000 to 50000 nM

COc1cc(-c2[nH]c3ccc(C4CCN(CC(=O)N(C)C)CC4)cc3c2C(C)C)cn2cc(C(=O)N(C)C)nc12 [Example 432, 6-(5-(1-(2-(dimethylamino)-2-oxoethyl)piperidin-4-yl)-3-isopropyl-1H-indol-2-yl)-8-methoxy-N,N-dimethylimidazo[1,2-a]pyridine-2-carboxamide]
IC50 (human TLR7): < 100 nM | IC50 (human TLR8): < 100 nM | IC50 (human TLR9): 1000 to 50000 nM
